By IC50 is commonly meant the concentration that inhibits the measured activity by half. The low end stands for greater potency in that assay, the high end for weaker potency in that assay.

SMILES strings stand for the structures. Where a name gives a salt, the structure may show the parent alone.

The assay deals with Prostate-specific antigen (Homo sapiens) (UniProt P07288). The experiment in a line: Inhibition of Prostate specific antigen PSA (Serine Protease).
Prostate-specific antigen (Homo sapiens), sequence (P07288 whole entry, looked up): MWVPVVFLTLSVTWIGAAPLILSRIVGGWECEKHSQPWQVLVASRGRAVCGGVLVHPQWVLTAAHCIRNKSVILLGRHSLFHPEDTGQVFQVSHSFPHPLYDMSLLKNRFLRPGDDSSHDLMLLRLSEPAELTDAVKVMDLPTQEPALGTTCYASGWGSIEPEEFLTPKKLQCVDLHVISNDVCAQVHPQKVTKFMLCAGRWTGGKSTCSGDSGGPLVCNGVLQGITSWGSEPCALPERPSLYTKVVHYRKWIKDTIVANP
As for `O=C(OCc1ccccc1)[C@@H]1[C@H](Cc2ccc(O)cc2)C(=O)N1C(=O)c1ccccc1` [1-Benzoyl-3-(4-hydroxy-benzyl)-4-oxo-azetidine-2-carboxylic acid benzyl ester], the IC50 was found to be 9.14 µM.

With `O=C(O)c1ccc(COC(=O)[C@@H]2[C@H](Cc3ccccc3)C(=O)N2C(=O)c2ccccc2)cc1` [1-Benzoyl-3-benzyl-4-oxo-azetidine-2-carboxylic acid 4-carboxy-benzyl ester], the IC50 was determined as 24.3 µM.

`NCc1ccc(COC(=O)[C@@H]2[C@H](Cc3ccccc3)C(=O)N2C(=O)Cc2cccc(C(=O)OCc3ccccc3)c2)cc1` [3-Benzyl-1-[2-(3-benzyloxycarbonyl-phenyl)-acetyl]-4-oxo-azetidine-2-carboxylic acid 4-aminomethyl-benzyl ester; TFA] returned a half-maximal inhibitory concentration (IC50) of 1.34 µM.

Turning to `O=C(O)c1ccc(COC(=O)[C@@H]2[C@H](Cc3ccccc3)C(=O)N2C(=O)Cc2cccc(C(=O)O)c2)cc1` [3-Benzyl-1-[2-(3-carboxy-phenyl)-acetyl]-4-oxo-azetidine-2-carboxylic acid 4-carboxy-benzyl ester], the IC50 was more than 30 µM.

As to `Cc1ccc(S(=O)(=O)N2C(=O)[C@@H](Cc3ccccc3)[C@H]2C(=O)OCc2ccccc2)cc1` [3-Benzyl-4-oxo-1-(toluene-4-sulfonyl)-azetidine-2-carboxylic acid benzyl ester], the IC50 was more than 30 µM.

`O=C(OCc1ccccc1)c1cccc(CC(=O)N2C(=O)[C@@H](Cc3ccccc3)[C@H]2COC(=O)c2ccccc2)c1` [3-[2-(2-Benzoyloxymethyl-3-benzyl-4-oxo-azetidin-1-yl)-2-oxo-ethyl]-benzoic acid benzyl ester] gave an IC50 of more than 100 µM.

For `O=C(OC[C@@H]1[C@H](Cc2ccccc2)C(=O)N1S(=O)(=O)c1ccccc1)c1ccccc1` [Benzoic acid 1-benzenesulfonyl-3-benzyl-4-oxo-azetidin-2-ylmethyl ester], half-maximal inhibition (IC50) was put at 3.08 µM.

The compound `O=C(OC[C@@H]1[C@H](Cc2ccccc2)C(=O)N1C(=O)c1ccccc1)c1ccccc1` [Benzoic acid 1-benzoyl-3-benzyl-4-oxo-azetidin-2-ylmethyl ester] showed an IC50 of 1.59 µM.

On to `O=C(OC[C@@H]1[C@H](Cc2ccccc2)C(=O)N1S(=O)(=O)c1ccc([N+](=O)[O-])cc1)c1ccccc1` [Benzoic acid 3-benzyl-1-(4-nitro-benzenesulfonyl)-4-oxo-azetidin-2-ylmethyl ester], for which the IC50 was 11.5 µM.

In turn, `CCS(=O)(=O)N1C(=O)[C@@H](Cc2ccccc2)[C@H]1COC(=O)c1ccccc1` [Benzoic acid 3-benzyl-1-ethanesulfonyl-4-oxo-azetidin-2-ylmethyl ester] displayed an IC50 of 2.19 µM.

Compound `Cc1ccc(S(=O)(=O)N2C(=O)[C@@H](Cc3ccccc3)[C@H]2COC(=O)c2ccccc2)cc1` [Benzoic acid 3-benzyl-4-oxo-1-(toluene-4-sulfonyl)-azetidin-2-ylmethyl ester] came in with an IC50 of 4.79 µM.

`O=C(O)c1ccc(C(=O)OC[C@@H]2[C@H](Cc3ccccc3)C(=O)N2C(=O)c2ccccc2)cc1` [Terephthalic acid mono-(1-benzoyl-3-benzyl-4-oxo-azetidin-2-ylmethyl) ester] yielded an IC50 of more than 100 µM.

(Values after BindingDB's records for doi:10.1021/jm000145g (University of Oxford, 2001).)
